From patent US20230045421A1 (priority 2018, published 2023)
Where two headings read alike, the source gives them in different places.

Tested on: HBV rcDNA
Experiment: HepDE19 assay with bDNA quantitation of HBV rcDNA
Assay type: cell-based, hepatitis B virus
Procedure, shortened: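 HepDE19 cells (HepG2-derived, Tet-regulated HBV replication) were deprived of tetracycline and then exposed to compounds for 7 days at 37 °C in 0.5% DMSO, 8-point titration from 25 μM. rcDNA was quantified by bDNA and EC50/EC90 came from 4-parameter fits. CC50 was measured by CellTiter-Glo ATP content on replicate plates after 4 days.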

[1] = HepDE19 assay, inhibition of formation of rcDNA, read-out: DE-19bDNA EC50
[2] = HepDE19 assay, inhibition of formation of relaxed circular DNA (rcDNA), bDNA quantitation, read-out: DE-19bDNA EC50
[3] = Hepatitis B virus, HepDE19, HepDE19 assay, inhibition of formation of rcDNA, read-out: DE-19bDNA EC50
[4] = read-out: DE-19bDNA EC50, HepDE19 assay, inhibition of formation of relaxed circular DNA (rcDNA), bDNA quantitation

SMILES: CC(c1cnc(OCc2nc[nH]n2)c2ccccc12)N(C)C(=O)Nc1ccc(F)c(Cl)c1 (single isomer, unassigned) [Compound 145, 1-(1-(1-((1H-1,2,4-Triazol-3-yl)methoxy)isoquinolin-4-yl)ethyl)-3-(3-chloro-4-fluorophenyl)-1-methylurea]
- EC50 [1]: 4.2 µM

SMILES: CC(c1cnc(OCc2ncn(C)n2)c2cc(F)c(F)cc12)N(C)C(=O)Nc1ccc(F)c(Cl)c1 (single isomer, unassigned) [Compound 347, 3-(3-Chloro-4-fluorophenyl)-1-(1-(6,7-difluoro-1-((1-methyl-1H-1,2,4-triazol-3-yl)methoxy)isoquinolin-4-yl)ethyl)-1-methylurea]
- EC50 [2]: 0.007 µM

SMILES: CCCn1cc(C(C)N(C)C(=O)Nc2ccc(F)c(Cl)c2)c2ccccc2c1=O (single isomer, unassigned) [Compound 185, 3-(3-Chloro-4-fluorophenyl)-1-methyl-1-(1-(1-oxo-2-propyl-1,2-dihydroisoquinolin-4-yl)ethyl)urea]
- EC50 [1]: 0.34 µM

SMILES: CC(c1cnc(CO)c2ccccc12)N(C)C(=O)Nc1ccc(F)c(Cl)c1 (single isomer, unassigned) [Compound 326, 3-(3-Chloro-4-fluorophenyl)-1-(1-(1-(hydroxymethyl)isoquinolin-4-yl)ethyl)-1-methylurea]
- EC50 [2]: 16 µM

SMILES: CC(c1cnc(S(C)(=O)=O)c2ccccc12)N(C)C(=O)Nc1ccc(F)c(Cl)c1 (single isomer, unassigned) [Compound 315, 3-(3-Chloro-4-fluorophenyl)-1-methyl-1-(1-(1-(methylsulfonyl)isoquinolin-4-yl)ethyl)urea]
- EC50 [2]: 0.8 µM

SMILES: CC(c1c[nH]c(=O)c2ccccc12)N(CC(C)(C)CO)C(=O)Nc1ccc(F)c(Cl)c1 (single isomer, unassigned) [Compound 209, 3-(3-Chloro-4-fluorophenyl)-1-(3-hydroxy-2,2-dimethylpropyl)-1-(1-(1-oxo-1,2-dihydroisoquinolin-4-yl)ethyl)urea]
- EC50 [1]: 7.9 µM

SMILES: CCN(Cc1c[nH]c(=O)c2ccccc12)C(=O)Nc1ccc(F)c(Cl)c1 [Compound 9, 3-(3-Chloro-4-fluorophenyl)-1-ethyl-1-((1-oxo-1,2-dihydroisoquinolin-4-yl)methyl)urea]
- EC50 [3]: 0.16 µM

SMILES: CC(c1cnc(N)c2ccccc12)N(C)C(=O)Nc1ccc(F)c(Cl)c1 (single isomer, unassigned) [Compound 239, 1-(1-(1-Aminoisoquinolin-4-yl)ethyl)-3-(3-chloro-4-fluorophenyl)-1-methylurea]
- EC50 [1]: 0.21 µM

SMILES: CC(c1c[nH]c(=O)c2ccc(F)cc12)N(CC1COC(C)(C)OC1)C(=O)Nc1ccc(F)c(Cl)c1 (single isomer, unassigned) [Compound 282, 3-(3-Chloro-4-fluorophenyl)-1-((2,2-dimethyl-1,3-dioxan-5-yl)methyl)-1-(1-(6-fluoro-1-oxo-1,2-dihydroisoquinolin-4-yl)ethyl)urea]
- EC50 [2]: 4 µM

SMILES: [2H]C([2H])([2H])C([2H])([2H])N(C(=O)Nc1ccc(F)c(Cl)c1)[C@H](C)c1c[nH]c(=O)c2ccccc12 [Compound 99, (R)-3-(3-Chloro-4-fluorophenyl)-1-(ethyl-d5)-1-(1-(1-oxo-1,2-dihydroisoquinolin-4-yl)ethyl)urea]
- EC50 [3]: 0.03 µM

SMILES: CC(c1cnc(OCc2ncn(C)n2)c2ccccc12)N(C)C(=O)Nc1ccc(F)c(Cl)c1 (single isomer, unassigned) [Compound 133, 3-(3-Chloro-4-fluorophenyl)-1-methyl-1-(1-(1-((1-methyl-1H-1,2,4-triazol-3-yl)methoxy)isoquinolin-4-yl)ethyl)urea]
- EC50 [1]: 5.9 µM

SMILES: CC(c1c[nH]c(=O)c2c(F)c(F)ccc12)N(CCS(N)(=O)=O)C(=O)Nc1ccc(F)cc1 (single isomer, unassigned) [Compound 395, 2-(1-(1-(7,8-Difluoro-1-oxo-1,2-dihydroisoquinolin-4-yl)ethyl)-3-(4-fluorophenyl)ureido)ethane-1-sulfonamide]
- EC50 [2]: 0.3 µM

SMILES: CC(c1c[nH]c(=O)c2nccnc12)N(C)C(=O)Nc1ccc(F)c(Cl)c1 (racemic) [Compound 148, 3-(3-chloro-4-fluorophenyl)-1-methyl-1-(1-(5-oxo-5,6-dihydropyrido[3,4-b]pyrazin-8-yl)ethyl)urea]
- EC50 [3]: 15 µM

SMILES: CC(c1c[nH]c(=O)c2cc(F)c(F)cc12)N(CCCO)C(=O)Nc1ccc(F)c(Cl)c1 (single isomer, unassigned) [Compound 290, 3-(3-Chloro-4-fluorophenyl)-1-(1-(6,7-difluoro-1-oxo-1,2-dihydroisoquinolin-4-yl)ethyl)-1-(3-hydroxypropyl)urea]
- EC50 [2]: 0.002 µM

SMILES: [2H]C([2H])([2H])N(C(=O)Nc1cccc(Cl)c1)C(C)c1c[nH]c(=O)c2c(F)c(F)ccc12 (single isomer, unassigned) [Compound 474, 3-(3-Chlorophenyl)-1-(1-(7,8-difluoro-1-oxo-1,2-dihydroisoquinolin-4-yl)ethyl)-1-(methyl-d3)urea]
- EC50 (Hepatitis B virus, HepDE19, read-out: DE-19bDNA EC50 (μM), HepDE19 assay, inhibition of formation of relaxed circular DNA (rcDNA), bDNA quantitation): 0.015 µM

SMILES: CC(c1c[nH]c(=O)c2c(F)c(F)ccc12)N(C)C(=O)Nc1ccc(F)cc1 (single isomer, unassigned) [Compound 432, 1-(1-(7,8-Difluoro-1-oxo-1,2-dihydroisoquinolin-4-yl)ethyl)-3-(4-fluorophenyl)-1-methylurea]
- EC50 [2]: 11.2 µM

SMILES: CCN(C(=O)Nc1ccc(F)c(Cl)c1)C(C)c1cnc(OC)c2ccccc12 (single isomer, unassigned) [Compound 22, 3-(3-Chloro-4-fluorophenyl)-1-ethyl-1-(1-(1-methoxyisoquinolin-4-yl)ethyl)urea]
- EC50 [1]: 9.6 µM

SMILES: COc1ncc(C(C)N(CC2CC2)C(=O)Nc2ccc(F)c(Cl)c2)c2ccccc12 (single isomer, unassigned) [Compound 63, 3-(3-Chloro-4-fluorophenyl)-1-(cyclopropylmethyl)-1-(1-(1-methoxyisoquinolin-4-yl)ethyl)urea]
- EC50 [1]: 5.8 µM

SMILES: CC(c1c[nH]c(=O)c2cc(F)c(F)cc12)N(C)C(=O)Nc1cccc(Cl)c1 (single isomer, unassigned) [Compound 412, 1-(1-(6,7-Difluoro-1-oxo-1,2-dihydroisoquinolin-4-yl)ethyl)-3-(3-chlorophenyl)-1-methylurea]
- EC50 [4]: 1.9 µM

SMILES: CC(c1c[nH]c(=O)c2ccccc12)N(CC1CC1)C(=O)Nc1ccc(F)c(Cl)c1 (single isomer, unassigned) [Compound 85, 3-(3-Chloro-4-fluorophenyl)-1-(cyclopropylmethyl)-1-(1-(1-oxo-1,2-dihydroisoquinolin-4-yl)ethyl)urea]
- EC50 [1]: 0.46 µM

SMILES: CC(c1c[nH]c(=O)c2c(F)c(F)ccc12)N(CCCO)C(=O)Nc1ccc(F)c(Cl)c1 (single isomer, unassigned) [Compound 335, 3-(3-Chloro-4-fluorophenyl)-1-(1-(7,8-difluoro-1-oxo-1,2-dihydroisoquinolin-4-yl)ethyl)-1-(3-hydroxypropyl)urea]
- EC50 [2]: 0.006 µM

SMILES: CC(c1c[nH]c(=O)c2c(F)c(F)ccc12)N(C)C(=O)Nc1cccc(Cl)c1 (single isomer, unassigned) [Compound 460, 3-(3-Chlorophenyl)-1-(1-(7,8-difluoro-1-oxo-1,2-dihydroisoquinolin-4-yl)ethyl)-1-methylurea]
- EC50 [4]: 0.61 µM

SMILES: CC(c1cnc(OCc2nc[nH]n2)c2cc(F)c(F)cc12)N(C)C(=O)Nc1ccc(F)c(Cl)c1 (single isomer, unassigned) [Compound 363, 1-(1-(1-((1H-1,2,4-Triazol-3-yl)methoxy)-6,7-difluoroisoquinolin-4-yl)ethyl)-3-(3-chloro-4-fluorophenyl)-1-methylurea]
- EC50 [2]: 0.014 µM

SMILES: CC(c1c[nH]c(=O)c2ccccc12)N(Cc1cscn1)C(=O)Nc1ccc(F)c(Cl)c1 (single isomer, unassigned) [Compound 313, 3-(3-Chloro-4-fluorophenyl)-1-(1-(1-oxo-1,2-dihydroisoquinolin-4-yl)ethyl)-1-(thiazol-4-ylmethyl)urea]
- EC50 [2]: 0.4 µM

SMILES: CC(c1c[nH]c(=O)c2ccc(Cl)cc12)N(C)C(=O)Nc1ccc(F)c(Cl)c1 (single isomer, unassigned) [Compound 172, 1-(1-(6-Chloro-1-oxo-1,2-dihydroisoquinolin-4-yl)ethyl)-3-(3-chloro-4-fluorophenyl)-1-methylurea]
- EC50 [1]: 0.12 µM

SMILES: CC(c1c[nH]c(=O)c2c(F)cc(F)cc12)N(CCCO)C(=O)Nc1ccc(F)cc1 (single isomer, unassigned) [Compound 377, 1-(1-(6,8-Difluoro-1-oxo-1,2-dihydroisoquinolin-4-yl)ethyl)-3-(4-fluorophenyl)-1-(3-hydroxypropyl) urea]
- EC50 [2]: 11 µM

SMILES: O=C(Nc1ccc(F)c(Cl)c1)N(Cc1c[nH]c(=O)c2ccccc12)CC1CC1 [Compound 53, 3-(3-Chloro-4-fluorophenyl)-1-(cyclopropylmethyl)-1-((1-oxo-1,2-dihydroisoquinolin-4-yl)methyl)urea]
- EC50 (Hepatitis B virus, HepDE19, read-out: DE-19bDNA EC50 (μM), HepDE19 assay, inhibition of formation of rcDNA): 0.16 µM

SMILES: CC(c1cnc(C(N)=O)c2ccccc12)N(C)C(=O)Nc1ccc(F)c(Cl)c1 (single isomer, unassigned) [Compound 329, 4-(1-(3-(3-Chloro-4-fluorophenyl)-1-methylureido)ethyl)isoquinoline-1-carboxamide]
- EC50 [2]: 0.12 µM

SMILES: Cc1cc(NC(=O)N(CC(F)F)[C@H](C)c2c[nH]c(=O)c3ccccc23)ccc1F [Compound 97, (R)-3-(3-Methyl-4-fluorophenyl)-1-(2,2-difluoroethyl)-1-(1-(1-oxo-1,2-dihydroisoquinolin-4-yl)ethyl)urea]
- EC50 [3]: 0.11 µM
